Assay in all cases: Eurofins kinase panel
Holding throughout (type): biochemical
Holding throughout (conditions): read-out: Inhibition rate (%)

The target in one assay is T1, EphA8(h) (Homo sapiens, UniProt P29322).
T1 construct: purchased Eurofins (KinaseProfiler)
T1 sequence (P29322 28-1005): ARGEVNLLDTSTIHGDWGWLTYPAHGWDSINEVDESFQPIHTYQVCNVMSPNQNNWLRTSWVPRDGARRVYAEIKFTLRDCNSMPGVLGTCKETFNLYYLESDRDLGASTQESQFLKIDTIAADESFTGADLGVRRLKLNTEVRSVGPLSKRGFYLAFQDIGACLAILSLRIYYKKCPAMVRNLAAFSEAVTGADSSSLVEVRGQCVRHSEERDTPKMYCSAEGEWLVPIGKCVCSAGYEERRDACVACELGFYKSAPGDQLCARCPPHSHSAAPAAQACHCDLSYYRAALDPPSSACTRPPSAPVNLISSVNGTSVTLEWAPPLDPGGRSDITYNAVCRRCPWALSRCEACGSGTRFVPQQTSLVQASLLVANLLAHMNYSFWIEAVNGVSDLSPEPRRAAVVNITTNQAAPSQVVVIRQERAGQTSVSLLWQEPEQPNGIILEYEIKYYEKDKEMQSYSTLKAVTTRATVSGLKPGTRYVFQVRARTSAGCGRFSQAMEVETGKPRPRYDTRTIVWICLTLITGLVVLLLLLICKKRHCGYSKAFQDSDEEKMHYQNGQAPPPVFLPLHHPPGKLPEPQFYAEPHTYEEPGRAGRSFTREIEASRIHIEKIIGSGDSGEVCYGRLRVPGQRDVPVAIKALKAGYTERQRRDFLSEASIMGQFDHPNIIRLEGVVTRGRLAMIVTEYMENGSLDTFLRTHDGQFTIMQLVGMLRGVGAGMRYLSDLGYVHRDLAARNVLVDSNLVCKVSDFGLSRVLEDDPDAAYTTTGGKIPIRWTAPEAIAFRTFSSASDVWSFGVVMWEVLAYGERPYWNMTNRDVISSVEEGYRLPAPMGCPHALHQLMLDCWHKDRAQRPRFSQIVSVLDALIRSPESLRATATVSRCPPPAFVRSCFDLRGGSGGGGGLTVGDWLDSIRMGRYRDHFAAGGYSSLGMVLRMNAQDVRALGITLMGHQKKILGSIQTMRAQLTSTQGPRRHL

The target of a further assay is T2, LIMK1(h) (Homo sapiens, UniProt P53667).
T2 construct: purchased Eurofins (KinaseProfiler)

The target in a further assay is T3, Lck(h) (Homo sapiens, UniProt P06239).
T3 construct: purchased Eurofins (KinaseProfiler)

For another assay, the target named is T4, MAPK2(h) (Homo sapiens, UniProt P28482).
T4 construct: purchased Eurofins (KinaseProfiler)

For the next assay, the target named is T5, MuSK(h) (Homo sapiens, UniProt O15146).
T5 construct: purchased Eurofins (KinaseProfiler)
T5 sequence (O15146 24-869): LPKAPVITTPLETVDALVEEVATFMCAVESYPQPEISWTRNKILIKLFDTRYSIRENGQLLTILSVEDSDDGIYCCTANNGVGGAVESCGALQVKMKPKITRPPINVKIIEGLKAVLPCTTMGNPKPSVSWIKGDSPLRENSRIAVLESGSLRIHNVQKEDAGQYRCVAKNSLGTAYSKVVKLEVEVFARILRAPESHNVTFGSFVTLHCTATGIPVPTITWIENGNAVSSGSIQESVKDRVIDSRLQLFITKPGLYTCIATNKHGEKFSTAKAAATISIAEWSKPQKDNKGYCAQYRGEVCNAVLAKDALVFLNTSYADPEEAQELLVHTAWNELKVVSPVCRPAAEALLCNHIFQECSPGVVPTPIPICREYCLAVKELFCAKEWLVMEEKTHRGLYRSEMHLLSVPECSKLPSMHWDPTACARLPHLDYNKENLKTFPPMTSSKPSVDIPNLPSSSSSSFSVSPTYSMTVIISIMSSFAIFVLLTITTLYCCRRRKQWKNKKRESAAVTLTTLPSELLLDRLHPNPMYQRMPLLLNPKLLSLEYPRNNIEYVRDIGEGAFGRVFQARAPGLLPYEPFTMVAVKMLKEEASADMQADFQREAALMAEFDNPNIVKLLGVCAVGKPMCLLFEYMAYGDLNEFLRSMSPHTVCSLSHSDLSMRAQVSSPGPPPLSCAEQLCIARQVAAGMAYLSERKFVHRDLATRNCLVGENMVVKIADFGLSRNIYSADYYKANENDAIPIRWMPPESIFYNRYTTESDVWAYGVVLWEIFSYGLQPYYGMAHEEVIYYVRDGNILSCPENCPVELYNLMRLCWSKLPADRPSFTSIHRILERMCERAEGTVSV

The source of these data is paper PMC6704710, “Preclinical evaluation of 3D185, a novel potent inhibitor of FGFR1/2/3 and CSF-1R, in FGFR-dependent and macrophage-dominant cancer models” (Journal of Experimental & Clinical Cancer Research : CR, 2019).

T4 sequence (P28482 whole entry): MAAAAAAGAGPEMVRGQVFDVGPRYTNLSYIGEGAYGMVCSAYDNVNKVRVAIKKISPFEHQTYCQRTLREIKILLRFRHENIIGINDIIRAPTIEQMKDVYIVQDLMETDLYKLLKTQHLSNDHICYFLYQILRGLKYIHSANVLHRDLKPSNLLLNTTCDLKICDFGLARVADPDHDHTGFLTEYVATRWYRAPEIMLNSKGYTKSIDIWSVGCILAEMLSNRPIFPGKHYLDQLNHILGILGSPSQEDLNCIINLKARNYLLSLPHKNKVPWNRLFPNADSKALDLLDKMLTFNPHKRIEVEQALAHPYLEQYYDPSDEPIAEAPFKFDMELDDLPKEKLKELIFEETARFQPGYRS
T3 sequence (P06239 whole entry): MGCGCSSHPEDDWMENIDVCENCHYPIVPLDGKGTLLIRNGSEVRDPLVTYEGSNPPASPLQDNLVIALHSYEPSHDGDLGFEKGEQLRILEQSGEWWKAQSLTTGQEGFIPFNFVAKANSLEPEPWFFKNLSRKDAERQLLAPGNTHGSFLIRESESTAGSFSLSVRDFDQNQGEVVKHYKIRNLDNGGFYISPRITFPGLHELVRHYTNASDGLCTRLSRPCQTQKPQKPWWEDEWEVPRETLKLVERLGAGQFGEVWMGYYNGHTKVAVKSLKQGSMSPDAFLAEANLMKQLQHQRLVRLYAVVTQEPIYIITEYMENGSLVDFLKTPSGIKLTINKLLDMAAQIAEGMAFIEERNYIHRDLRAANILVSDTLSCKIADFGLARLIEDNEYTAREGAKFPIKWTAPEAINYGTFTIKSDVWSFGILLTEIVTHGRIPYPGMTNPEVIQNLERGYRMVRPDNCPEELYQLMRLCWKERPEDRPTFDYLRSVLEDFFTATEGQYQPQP
T2 sequence (P53667 whole entry): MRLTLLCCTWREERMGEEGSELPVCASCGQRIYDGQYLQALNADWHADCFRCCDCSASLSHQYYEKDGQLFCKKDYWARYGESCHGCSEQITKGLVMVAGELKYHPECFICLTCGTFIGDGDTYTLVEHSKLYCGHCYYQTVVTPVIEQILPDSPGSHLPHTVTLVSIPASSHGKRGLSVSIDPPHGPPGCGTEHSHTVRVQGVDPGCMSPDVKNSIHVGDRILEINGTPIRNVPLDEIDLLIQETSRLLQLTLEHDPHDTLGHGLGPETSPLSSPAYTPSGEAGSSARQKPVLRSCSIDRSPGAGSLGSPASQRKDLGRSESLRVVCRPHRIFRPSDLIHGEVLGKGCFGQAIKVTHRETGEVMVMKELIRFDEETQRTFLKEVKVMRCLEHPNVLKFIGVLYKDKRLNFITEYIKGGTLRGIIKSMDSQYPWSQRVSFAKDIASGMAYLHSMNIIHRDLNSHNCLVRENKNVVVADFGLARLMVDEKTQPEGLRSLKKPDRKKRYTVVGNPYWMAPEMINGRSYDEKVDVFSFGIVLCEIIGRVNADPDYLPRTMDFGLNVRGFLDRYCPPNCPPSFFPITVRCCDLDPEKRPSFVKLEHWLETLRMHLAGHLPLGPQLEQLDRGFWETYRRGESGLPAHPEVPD

As to `COc1cc(OC)c(Cl)c(-c2ccc3c(NC(=O)c4ccc(N5CCNC(C)(C)C5)cc4)n[nH]c3n2)c1Cl` [3D185], the inhibition at 0.01 µM on EphA8(h) (10 nM) is 1%; at LIMK1(h) (10 nM) it was 2%; on Lck(h) (10 nM), 22%; on MAPK2(h) (10 nM), -5%; on MuSK(h) (10 nM), 2%. Besides, the inhibition at 0.1 µM was 5% at EphA8(h) (100 nM); 8% at LIMK1(h) (100 nM); 60% at Lck(h) (100 nM); -3% at MAPK2(h) (100 nM); 7% at MuSK(h) (100 nM). For the same compound, the inhibition at 1 µM at EphA8(h) (1000 nM) came to 29%; at LIMK1(h) (1000 nM), 0%; at Lck(h) (1000 nM) it was 94%; at MAPK2(h) (1000 nM), 3%; on MuSK(h) (1000 nM), 47%.
